{
  "source": "paper PMC8924551",
  "about": "“Functional Characterization of a Flavone Synthase That Participates in a Kumquat Flavone Metabolon” (Frontiers in Plant Science, 2022)",
  "test_system": "T1, FcFNSII-2",
  "T1 construct": "microsomes of Saccharomyces cerevisiae WAT11 co-expressing Arabidopsis ATR1 P450 reductase",
  "assay": "yeast microsome assay, UPLC-Q-TOF-MS, Michaelis-Menten fit",
  "format": "biochemical, Fortunella crassifolia",
  "conditions": "1 mM NADPH, 100 mM Tris/HCl pH 7.0, 30°C, 1 h; product apigenin",
  "data": [
    {"compound": "O=C1C[C@@H](c2ccc(O)cc2)Oc2cc(O)cc(O)c21", "note": "[naringenin]", "values": [
      {"measurement": "Km", "value": 3.77, "unit": "µM"}
    ]}
  ]
}
